Results published in patent US7511061B2, “Triazoles as farnesyl transferase inhibitors” (Janssen Pharmaceutica N.V., priority 1999, dated 2009).

Columns and labels:
[1] = system: Respiratory Syncytial Virus; assay: In vitro screening for activity against Respiratory Syncytial Virus (MTT assay, protection against cytopathology); format: cell-based; settings: for SI (selectivity index, CC50 divided by IC50): RSV, HeLa cells; for IC50: human respiratory syncytial virus, 168 h, RSV-infected HeLa cells, seven days after infection, MTT, read-out: IC50 (antiviral activity)
Excerpt: (§1) The percent protection against cytopathology caused by viruses (antiviral activity or IC50) achieved by tested compounds and their cytotoxicity (CC50) were both calculated from dose-response curves. The selectivity of the antiviral effect is represented by the selectivity index (SI), calculated by dividing the CC50 (cytotoxic dose for 50% of the cells) by the IC50 (antiviral activity for 50% of the cells).
(§2) Automated tetrazolium-based […] assays were used for determination of IC50 and CC50 of test compounds. Flat-bottom, 96-well plastic microtiter trays were filled with 180 μl of Eagle's Basal Medium, supplemented with 5% FCS (0% for FLU) and 20 mM Hepes buffer. Subsequently, stock solutions (7.8× final test concentration) of compounds were added in 45 μl volumes to a series of triplicate wells so as to allow simultaneous evaluation of their effects on virus- and mock-infected cells. Five five-fold dilutions were made directly in the microtiter trays using a robot system. Untreated virus controls, and HeLa cell controls were included in each test. Approximately 100 TCID50 of Respiratory Syncytial Virus was added to two of the three rows in a volume of 50 μl. The same volume of medium was added to the third row to measure the cytotoxicity of the compounds at the same concentrations as those used to measure the antiviral activity. After two hours of incubation, a suspension (4×10^5 cells/ml) of HeLa cells was added to all wells in a volume of 50 μl. The cultures were incubated at 37° C. in a 5% CO2 atmosphere. Seven days after infection the cytotoxicity and the antiviral activity was examined spectrophotometrically. To each well of the microtiter tray, 25 μl of a solution of MTT (3-(4,5-dimethylthiazol-2-yl)-2,5-diphenyltetrazolium bromide) was added. The trays were further incubated at 37° C. for 2 hours, after which the medium was removed from each cup. Solubilization of the formazan crystals was achieved by adding 100 μl 2-propanol. Complete dissolution of the formazan crystals were obtained after the trays have been placed on a plate shaker for 10 min. Finally, the absorbances were read in an eight-channel computer-controlled photometer (Multiskan MCC, Flow Laboratories) at two wavelengths (540 and 690 nm). The absorbance measured at 690 nm was automatically subtracted from the absorbance at 540 nm, so as to eliminate the effects of non-specific absorption.

[2] = system: HeLa cells; format: cell-based; settings: human, 7 days
Excerpt: as §1, §2

[3] = target: farnesyl protein transferase (FPTase) (Homo sapiens, UniProt P49354+P49356); assay: In vitro assay for inhibition of farnesyl protein transferase; format: biochemical; settings: test dose of 10^−7 M
Experimental: An in vitro assay for inhibition of farnesyl transferase was performed essentially as described in WO 98/40383, pages 33-34.

## Cc1ccc(CCN(Cc2ccc3ccccc3n2)Cc2nncn2Cc2ccc(C#N)cc2)cc1 [compound 46]
[1]
  SI (selectivity index, CC50 divided by IC50): 758
  IC50: 88.1 nM
[2]
  CC50 (cytotoxic dose for 50% of the cells): 7060 nM

## COC(=O)c1ccc(Cn2cnnc2CN(CCc2ccc(Br)cc2)Cc2ccc3ccccc3n2)cc1 [compound 90]
[1]
  SI (selectivity index, CC50 divided by IC50): 1988
  IC50: 25.9 nM
[2]
  CC50 (cytotoxic dose for 50% of the cells): 7590 nM

## Brc1ccc(CCN(Cc2ccc3ccccc3n2)Cc2nncn2Cc2ccc(Br)cc2)cc1 [compound 92]
[1]
  SI (selectivity index, CC50 divided by IC50): 147
  IC50: 150 nM
[2]
  CC50 (cytotoxic dose for 50% of the cells): 6820 nM

## Fc1ccc(Cn2cnnc2CN(CCc2ccc(Br)cc2)Cc2ccc3ccccc3n2)cc1 [compound 97]
[1]
  SI (selectivity index, CC50 divided by IC50): 322
  IC50: 80 nM
[2]
  CC50 (cytotoxic dose for 50% of the cells): 7100 nM

## Brc1ccc(CCN(Cc2ccc3ccccc3n2)Cc2nncn2Cc2ccccc2)cc1 [compound 101]
[1]
  SI (selectivity index, CC50 divided by IC50): 196
  IC50: 128 nM
[2]
  CC50 (cytotoxic dose for 50% of the cells): 6890 nM

## N#Cc1cccc(Cn2cnnc2CN(CCc2ccc(Br)cc2)Cc2ccc3ccccc3n2)c1 [compound 102]
[1]
  SI (selectivity index, CC50 divided by IC50): 793
  IC50: 82.4 nM
[2]
  CC50 (cytotoxic dose for 50% of the cells): 7080 nM

## N#Cc1ccc(Cn2cnnc2CN(CCc2ccc(Cl)cc2Cl)Cc2ccc3ccccc3n2)cc1 [compound 114]
[1]
  SI (selectivity index, CC50 divided by IC50): 337
  IC50: 118 nM
[2]
  CC50 (cytotoxic dose for 50% of the cells): 6930 nM

## N#Cc1ccc(Cn2cnnc2CN(CCc2ccc(Br)cc2)Cc2ccc3cccc(O)c3n2)cc1 [compound 155]
[1]
  SI (selectivity index, CC50 divided by IC50): 99
  IC50: 160 nM
[2]
  CC50 (cytotoxic dose for 50% of the cells): 6800 nM

## Clc1ccc(Cn2cnnc2CN(CCc2ccc(Br)cc2)Cc2ccc3ccccc3n2)cc1 [compound 157]
[1]
  SI (selectivity index, CC50 divided by IC50): 272
  IC50: 93.1 nM
[2]
  CC50 (cytotoxic dose for 50% of the cells): 7030 nM

## N#Cc1ccc(Cn2cnnc2CN(Cc2ccc(F)cc2F)C(=O)c2ccc(-c3cccc(C(F)(F)F)c3)o2)cc1 [compound 292]
[3]
  inhibition at 0.1 µM: ≥ 10%

## N#Cc1ccc(Cn2cnnc2CN(Cc2ccc(F)cc2F)C(=O)c2ccc(OC(F)(F)F)c(Cl)c2)cc1 [compound 293]
[3]
  inhibition at 0.1 µM: ≥ 10%

## N#Cc1ccc(Cn2cnnc2CN(Cc2ccccc2Cl)C(=O)c2ccc3ccccc3n2)cc1 [compound 294]
[3]
  inhibition at 0.1 µM: ≥ 10%

## N#Cc1ccc(Cn2cnnc2CN(Cc2ccc(F)cc2F)C(=O)c2ccc3ccccc3n2)nc1 [compound 295]
[3]
  inhibition at 0.1 µM: ≥ 10%

## N#Cc1ccc(Cn2cnnc2CN(Cc2ccc(F)cc2F)C(=O)c2ccc(-c3cc(Cl)cc(Cl)c3)o2)cc1 [compound 296]
[3]
  inhibition at 0.1 µM: ≥ 10%

## N#Cc1ccc(Cn2cnnc2CN(Cc2ccc(F)cc2)C(=O)c2ccc3ccccc3n2)cc1 [compound 297]
[3]
  inhibition at 0.1 µM: ≥ 10%

## COc1cc(C(=O)N(Cc2ccc(F)cc2F)Cc2nncn2Cc2ccc(C#N)cc2)nc2ccccc12 [compound 298]
[3]
  inhibition at 0.1 µM: ≥ 10%

## N#Cc1ccc(Cn2cnnc2CN(Cc2ccc(F)cc2F)C(=O)c2cc3ccccc3o2)cc1 [compound 299]
[3]
  inhibition at 0.1 µM: ≥ 10%

## N#Cc1ccc(Cn2cnnc2CN(Cc2ccc(F)cc2F)C(=O)c2ccc3ccccc3n2)cc1 [compound 300]
[3]
  inhibition at 0.1 µM: ≥ 10%

## N#Cc1ccc(Cn2cnnc2CN(Cc2ccc(F)cc2F)C(=O)c2nc3ccccc3nc2O)cc1 [compound 301]
[3]
  inhibition at 0.1 µM: ≥ 10%

## N#Cc1ccc(Cn2cnnc2CN(Cc2ccc(C(F)(F)F)cc2)C(=O)c2ccc3ccccc3n2)cc1 [compound 302]
[3]
  inhibition at 0.1 µM: ≥ 10%

## N#Cc1ccc(Cn2cnnc2CN(Cc2c(F)cccc2F)C(=O)c2ccc3ccccc3n2)cc1 [compound 303]
[3]
  inhibition at 0.1 µM: ≥ 10%

## N#Cc1ccc(Cn2cnnc2CN(Cc2ccc(Br)cc2)C(=O)c2ccc3ccccc3n2)cc1 [compound 304]
[3]
  inhibition at 0.1 µM: ≥ 10%

## N#Cc1ccc(Cn2cnnc2CN(Cc2cc(F)cc(F)c2)C(=O)c2ccc3ccccc3n2)cc1 [compound 305]
[3]
  inhibition at 0.1 µM: ≥ 10%

## N#Cc1ccc(Cn2cnnc2CN(Cc2ccccc2F)C(=O)c2ccc3ccccc3n2)cc1 [compound 306]
[3]
  inhibition at 0.1 µM: ≥ 10%

## N#Cc1ccc(Cn2cnnc2CN(Cc2cccc(F)c2F)C(=O)c2ccc3ccccc3n2)cc1 [compound 307]
[3]
  inhibition at 0.1 µM: ≥ 10%

## Cc1ccc(C(=O)N(Cc2ccc(F)cc2F)Cc2nncn2Cc2ccc(C#N)cc2)cc1-c1cc(Cl)cc(Cl)c1 [compound 308]
[3]
  inhibition at 0.1 µM: ≥ 10%

## Cc1ccc(C(=O)N(Cc2ccc(F)cc2F)Cc2nncn2Cc2ccc(C#N)cc2)cc1Br [compound 309]
[3]
  inhibition at 0.1 µM: ≥ 10%

## Cc1nnc(CN(Cc2ccc(F)cc2F)C(=O)c2ccc3ccccc3n2)n1Cc1ccc(C#N)cc1 [compound 311]
[3]
  inhibition at 0.1 µM: ≥ 10%

## Cc1nnc(CN(Cc2ccc(F)cc2F)C(=O)c2ccc3ccccc3n2)n1-c1ccc(C#N)cc1 [compound 313]
[3]
  inhibition at 0.1 µM: ≥ 10%

## Cc1ccc(Br)cc1C(=O)N(Cc1ccc(F)cc1F)Cc1nncn1Cc1ccc(C#N)cc1 [compound 314]
[3]
  inhibition at 0.1 µM: ≥ 10%

## N#Cc1ccc(Cn2cnnc2CN(Cc2ccc(F)cc2F)C(=O)c2ccc3ccccc3c2)cc1 [compound 315]
[3]
  inhibition at 0.1 µM: ≥ 10%
